Source: article PMC12430429, “Synthesis, Structure, DNA/BSA Binding, DNA Cleaving, Cytotoxic and SOD Mimetic Activities of Copper(II) Complexes Derived from Methoxybenzylamine Schiff Base Ligands” (Molecules, 2025)

Test system: EB–DNA adduct (ct-DNA)
Experiment: EB–DNA displacement method (fluorescence quenching)
Type: binding, calf
Conditions: for Stern–Volmer quenching constant Ksv / quenching rate constant kq: EB–DNA adduct; for quenching rate constant kq: τ0 = 23 × 10^−9 s; for Δ I/I0, EB–DNA fluorescence quenching: maximum quenching of EB–DNA emission
Description: Competitive-binding experiments using the ethidium bromide (EB) displacement method from DNA may provide another confirmation of the binding affinity of the complexes. EB is a well-known DNA intercalator able to form an EB–DNA adduct by its insertion between adjacent DNA base pairs. The EB–DNA adduct is distinguished by an intense fluorescence emission band at 615 nm after excitation at 540 nm. Introducing a compound with DNA affinity leads to emission intensity decrease of the EB–DNA adduct as a result of the competition between the measured compound and EB for the binding sites within DNA.
Competitive-binding experiments to determine the displacement of the intercalator ethidium bromide (EB) from the EB–DNA adduct were conducted by fluorescence spectroscopy. To prepare the EB–DNA adduct, 20 μM EB and 54 μM ct-DNA were added to citrate buffer (sodium citrate at 15 mM and sodium chloride at 150 mM at pH = 7.0). The addition of increasing concentrations of complexes 4a–c (c = 1 mM) to a solution of the EB–DNA complex corresponded to the intercalating effect of the complexes. The concentration of the added complexes ranged from 0 to 0.2 mM. Fluorescence emission spectra were recorded in the range of 550–800 nm with an excitation wavelength of 515 nm. […] Quenching of the EB–DNA emission band by the compounds 4a–c was calculated using the Stern–Volmer equation (Equations (2)–(4)).
The extent of the inner-filter effect can be roughly estimated with the following equation:(2) Icorr=Imeas×10^ε(λexc)cd/2×10^ε(λem)cd/2 where Icorr is the corrected intensity, Imeas is the measured intensity, c is the quencher concentration, d is the width of the cuvette (1 cm) and ε(λexc) and ε(λem) are the […] of the quencher at the excitation and the emission wavelength calculated from the UV–Vis spectra of the complexes.
The quenching of the EB–DNA emission band by compounds was calculated via the Stern–Volmer equation:(3) Io/I=1+kqτ0Q=1+KSVQ where Io = the initial fluorescence intensity of the EB–DNA adduct, and I is the fluorescence intensity of the EB–DNA adduct after the addition of the quencher (studied complexes), kq = the quenching rate constant, KSV = the Stern–Volmer constant, τo = the average fluorescence lifetime of the EB–DNA adduct (23 × 10^−9 s), [Q] = the quencher concentration, respectively, KSV (in M^−1) can be obtained by the slope of the Stern–Volmer plot and kq (in M^−1 s^−1) can be calculated from Equation (4):(4) KSV=kqτ0

Structure (SMILES) | Stern–Volmer quenching constant Ksv | quenching rate constant kq | Δ I/I0, EB–DNA fluorescence quenching [%]
COc1cccc(CN=Cc2ccccc2[O][Cu][O]c2ccccc2C=NCc2cccc(OC)c2)c1 [Complex 4b, [Cu (Sal-3-MeOBn)2]] | 3.61 (±0.09) M^−1 × 10^3 | 1.56 (±0.04) M^−1 s^−1 × 10^11 | 40.1
COc1ccc(CN=Cc2ccccc2[O-])cc1.COc1ccc(CN=Cc2ccccc2[O-])cc1.[Cl-].[Cl-].[Cu+2].[Cu+2] [Complex 4c, [Cu2 (Sal-4-MeOBn)2 Cl2]] | 3.82 (±0.12) M^−1 × 10^3 | 1.66 (±0.05) M^−1 s^−1 × 10^11 | 40.7
COc1ccccc1CN=Cc1ccccc1[O-].COc1ccccc1CN=Cc1ccccc1[O-].[Cl-].[Cl-].[Cu+2].[Cu+2] [Complex 4a, [Cu2 (Sal-2-MeOBn)2 Cl2]] | 4.58 (±0.10) M^−1 × 10^3 | 1.98 (±0.05) M^−1 s^−1 × 10^11 | 45.7
